This is an account of results in patent publication US7585855B2, “Bengamides with a substituted caprolactam cycle, method for the preparation thereof, compositions containing them and use thereof” (Aventis Pharma SA, priority 2004, dated 2009).

This experiment concerns Hep-G2 cells. As to the kind of experiment: Inhibition of cell proliferation of Hep-G2 cells (intracellular ATP, CellTiterGlo). The following applies: Homo sapiens, HepG2, 72 hours incubation, ATP content, read-out: IC 50 (μM)/HEP G2. The class given is cell-based. The method, then: The antiproliferative activity of product 3 was determined by measuring the inhibition of cell proliferation of Hep-G2 cells. The cells are subcultured in a cell culture medium at a concentration of 1000 cells per well, and incubated for 4 hours at 37° C. and 5% CO2.
Medium used for the Hep-G2 cell culture: Dubelcco's modified Eagle's medium/Ham mixture F12 (Gibco); NEAA (10%; nonessential amino acids, Gibco); sodium pyruvate (1%, Gibco); L-glutamine (1%, Gibco); fetal calf serum (5%; PAA).
After 4 hours, the test products dissolved in a DMSO/cell culture medium mixture are added at various concentrations and the resulting mixtures are incubated for 72 hours at 37° C. and 5% CO2. The intracellular ATP content was measured using the CellTiterGlo test reagent (Promega).

In the case of `CO[C@@H](C(=O)N[C@H]1CCCCNC1=O)[C@H](O)[C@@H](O)[C@H](O)/C=C/C(C)C` [Bengamide E], the IC50 was determined as 7 µM.
With `CCC(C)/C=C/[C@@H](O)[C@H](O)[C@@H](O)[C@@H](OC)C(=O)N[C@H]1CCCCN(Cc2ccccc2)C1=O` (stereo partly drawn) [Example 3, N-[(S)-1-(4-benzyl)-2-oxoperhydroazepin-3-yl]-(E)-(2R,3R,4S,5R)-3,4,5-trihydroxy-2-methoxy-8-methyldec-6-enamide] the figure was 0.02 µM.
